What is called IC50 is the concentration that inhibits the measured activity by half. The low end stands for greater potency in that assay, the high end for weaker potency in that assay.

Series [1] in a line: Pharmacokinetic properties of test compound in mice (oral). The note with it: for oral plasma systemic exposures (AUC0-inf), in words / Area under the drug-time curve (0-inf) / Peak concentration / Time to peak: mice; for Area under the drug-time curve (0-inf) / Peak concentration / Time to peak: oral 10 mg/kg, plasma; for pharmacokinetic properties, in words: rodent mice. It is filed as in vivo, C57BL male mice. From the text: In this study, C57BL male mice were selected as the test animals. A LC-MS/MS method was used to quantitatively determine the drug concentration in the plasma after oral administration of the test compound and the reference compound, to evaluate the pharmacokinetic profile of the test compound in mice.
C57Balb/c (C57) mice (male, 20-30 g, 7-10 weeks old, Beijing Vital River or Shanghai SLAC).
A clear solution or suspension of the test compound was administrated to C57 mice (fasted overnight) by oral gavage. Blood was collected from jugular vein at pre-dose and 0.5, 1, 2, 4, 6, 8, 24 hours post-dose, the collected blood samples were placed in an anticoagulant tube (Jiangsu Kangjian Medical Co., Ltd.) supplemented with EDTA-K2, and the mixture was vortexed and centrifuged at 13000 rpm for 10 minutes. The LC-MS/MS method was used to determine the plasma concentration of test compounds, and the relevant pharmacokinetic parameters were calculated using non-compartmental model linear logarithmic trapezoidal method by WinNonlinTM Version 6.3 (Pharsight, Mountain View, Calif.).

For series [2], the system named is human lymphoma OCI-LY10 cells subcutaneous xenograft tumor. As for the experimental part:
Cells culture: Human lymphoma OCI-LY10 cells (National Cancer Institute) were cultured in a monolayer in vitro. The culture conditions were RPMI-1640 medium with 10% fetal bovine serum, 100 U/mL penicillin and […] streptomycin, 37° C., 5% CO2 incubator culture. Conventional digestion treatment with pancreatin-EDTA for passage was carried out twice a week. When the cell saturation was 80% to 90%, and the number reached the requirement, the cells were collected, counted and inoculated.
Animal: CB-17 SCID mouse, female, 6-8 weeks old, weighing 18-22 grams. Protocols:
0.2 mL (10×10^6 cells) of OCI-LY10 cells (with matrigel in a volume ratio of 1:1) were subcutaneously inoculated on the right back of each mouse. The grouping and administration were started when the average tumor volume reached about 139 mm^3. One dosing cycle was seven days, and the compound was administered once a day with an interval of 24 hours. The test compound was administered orally for a total of four cycles. The dose of the test compound WX002 was 60 mg/kg, the tumor volume was measured twice a week with a two-dimensional caliper, and the volume was measured in cubic millimeters, calculated by the following formula: V =0.5a×b^2, in which a and b were the long diameter and short diameter of the tumor, respectively. The anti-tumor efficacy was determined by dividing average increase of tumor volume of animals treated with the compound by that of untreated animals.

Series [3] relates to DOHH2 cell line. As to the kind of experiment: Anti-proliferative effect in lymphoma cell line DOHH2 (CellTiter-Glo). It is filed as cell-based. The note with it: Homo sapiens, DOHH-2, 96 h; incubate with the compound for 4 days. As for the experimental part: (§1) Experiment object: In this experiment, the inhibitory effects of the test compounds on cell proliferation in the diffuse large B-cell lymphoma cell lines OCI-LY10 and DOHH2, and the mantle cell lymphoma cell line Mino were tested.
(§2) The tumor cell lines were cultured in an incubator at 37° C. and 5% CO2 under the above-mentioned culture conditions. The cells were passaged regularly, and cells in the logarithmic growth phase were taken for planting.
(§3) (1). The cells were stained with trypan blue and live cells were counted.
(§4) (2). The cell concentration was adjusted to an appropriate concentration.
(§5) (3). 90 μL of cell suspension was added to each well of the culture plate as shown in the table above, and cell-free culture solution was added to the blank control well.
(§6) (4). The culture plates were incubated overnight at 37° C., 5% CO2, and 100% relative humidity in an incubator.
(§7) The mother liquor storage plate with a compound concentration of 400 times the working concentration of the compound was prepared: The compound was gradually diluted with DMSO from the highest concentration to the lowest concentration. The compound was freshly formulated when use every time.
(§8) (1). Formulation of a working solution with a compound concentration of […] the working concentration of the compound: 76 μL of cell culture solution was added to a 96-well plate with a V-shaped bottom, and 4 μL of the compound was pipetted from the mother liquor storage plate with a compound concentration of […] the working concentration of the compound to the cell culture solution of the 96-well plate. 4 μL of DMSO was added to the vehicle control and blank control. After adding the compound or DMSO, a multi-channel pipette was used for pipetting and mixing well. […]
(§9) The following steps followed the instructions of Promega CellTiter-Glo Luminescence Cell Viability Detection Kit (Promega-G7573). […]
(§10) (8). The culture plates were left at room temperature for 10 minutes to stabilize the luminescence signal.
(§11) (9). The luminous signal was detected on the 2104 EnVision plate reader. […]

Series [4] deals with OCI-LY10 cell line. In words: Anti-proliferative effect in lymphoma cell line OCI-LY10 (CellTiter-Glo). In kind it is cell-based. The note with it: Homo sapiens, OCI-Ly10, 120 h; incubate with the compound for 5 days. Here is the method:
as §1, §2, §3, §4, §5
(4). The culture plates were incubated overnight at 37° C., 5% CO2, and 100% relative humidity in an incubator. […]
as §9, §10, §11

Series [5] has as its system Mino cell line. As to the kind of experiment: Anti-proliferative effect in mantle cell lymphoma cell line Mino (CellTiter-Glo). In kind it is cell-based. The note with it: Homo sapiens, 96 h, incubate with the compound for 4 days. As for the experimental part: as §1, §2, §3, §4, §5, §6, §7, §8, §9, §10, §11
Setting [6] is: 60 mg/kg oral once a day, Day 27.

Counter-ions that a name gives are not always drawn.

Regarding `CCOC(=O)Cc1coc2ccc3cc(OCCN(C)C)ccc3c12` [Hydrochloride of WX008], in series [1], the “oral plasma systemic exposures (AUC0-inf), in words” value (“oral plasma systemic exposures” for short) is “higher oral plasma systemic exposures”; the “Area under the drug-time curve (0-inf)” value worked out at 10.27 µM·h; the Peak concentration is 4.88 µM; the Time to peak was determined as 1.00 h. Besides, in series [1], the “pharmacokinetic properties, in words” value was “better pharmacokinetic properties”.
For `O=C1CCC(c2coc3ccc4cc(OCCN5CCOCC5)ccc4c23)C(=O)N1` (centres unmarked) [Hydrochloride of WX020], in series [1], the “oral plasma systemic exposures” value was “higher oral plasma systemic exposures”; the “Area under the drug-time curve (0-inf)” value worked out at 18.38 µM·h; the Peak concentration came out at 8.56 µM; the Time to peak was found to be 0.25 h. In series [1], the “pharmacokinetic properties, in words” value is recorded as “better pharmacokinetic properties”.
In the case of `O=C1CCC(c2coc3ccc4ccccc4c23)C(=O)N1` (centres unmarked) [WX002], the “Tumor volume (Day 1)” value in series [2] (60 mg/kg oral once a day, Day 1 (start of administration)) is listed as 139 ± 10 mm^3. For the same molecule, in series [2] (setting [6]), the “TGI (Day 27)” value worked out at 111% and the “Tumor volume (Day 27)” value stood at 35 ± 10 mm^3. In addition, the “effect on the human lymphoma OCI-LY10 in vivo pharmacodynamic model, in words” value in series [2] (mouse, in vivo) is given as “significant tumor-shrinking effect”. Moreover, inhibition in series [3] was half-maximal at 97 nM (IC50). Besides, in series [1], the “Area under the drug-time curve (0-inf)” value was determined as 2.49 µM·h, the Peak concentration was 2.83 µM and the Time to peak came out at 0.50 h. Also, inhibition in series [4] was half-maximal at 26 nM (IC50). In series [5], this molecule registered an IC50 of 8 nM.
`O=C1CCC(c2coc3ccc4occc4c23)C(=O)N1` (centres unmarked) [WX004] yielded an IC50 in series [3] of 144 nM. Also, in series [1], the “oral plasma systemic exposures” value is “higher oral plasma systemic exposures”; the “Area under the drug-time curve (0-inf)” value was found to be 5.50 µM·h; the Peak concentration amounted to 6.54 µM; the Time to peak is listed as 0.25 h. The “pharmacokinetic properties, in words” value in series [1] is listed as “better pharmacokinetic properties”. The molecule further gave an IC50 in series [4] of 17 nM. The same molecule returned an IC50 in series [5] of 7 nM.
`Cc1cc2c(ccc3occ(C4CCC(=O)NC4=O)c32)o1` (centres unmarked) [WX005]: the IC50 in series [3] came to 165 nM; in series [5] it was 10 nM.
Take `O=C1CCC(c2coc3ccc4[nH]ccc4c23)C(=O)N1` (centres unmarked) [WX007]: in series [1], the “oral plasma systemic exposures” value is “higher oral plasma systemic exposures”; the “Area under the drug-time curve (0-inf)” value turned out to be 7.79 µM·h; the Peak concentration was 12.95 µM; the Time to peak is 0.08 h. Besides, the “pharmacokinetic properties, in words” value in series [1] is “better pharmacokinetic properties”.

Values taken from patent US20210317109A1, “TRICYCLIC SUBSTITUTED PIPERIDINE DIONE COMPOUND” (MEDSHINE DISCOVERY INC., priority 2018, published 2021).
